Reference: patent publication US11241013B2, “Benzimidazole compounds as agricultural chemicals” (REDAG CROP PROTECTION LTD, priority 2017, dated 2022)

Tests used:
Pythium ultimum = experiment: Amended agar assay; type: cell-based; design: key to % control Pythium ultimum 2 ppm / % control Pythium ultimum 20 ppm: D: no control detected at this concentration; C: up to 50% control; B: from 50 to 99% control; A: a control of greater than 99%, i.e. no detectable colony growth; conditions: amended PDA agar, 2 ppm, % reduction in colony growth vs control plate, 18° C.; for inhibition of growth at 2 ppm: Globisporangium ultimum
Protocol: Testing was carried out on potato dextrose agar (PDA) amended with each compound at a test concentration of typically 20 ppm or 2 ppm. Amended agar was poured into three replicate 9 cm petri dishes. Each replicate dish was inoculated in the centre with a 5 mm agar plug taken from the leading edge of a culture aged between 2 and 7 days old; the age of the culture was dependant on the growth rate of the pathogen being tested. The test pathogens were Pythium ultimum and Phytophthora cinnamomi. Plates were incubated at 18° C. and the diameter of each colony measured before growth on the fastest growing plate reached the plate edge. This varied between 2 and 7 days depending on the growth rate of test pathogens. The % reduction in colony growth compared to the control plate was calculated for each pathogen. The results are provided in Table 1, in which D represents no control detected at this concentration; C represents up to 50% control; B from 50 to 99% control; and A represents a control of greater than 99%, i.e. no detectable colony growth.
Alternatively, or in addition, the same assay was conducted at descending test concentrations with 5-fold dilutions typically down to 0.032 ppm though sometimes as low as 0.00026 ppm, and an EC50 (the concentration at which 50% control would be achieved) was determined. The results are provided in Table 1 in which G represents no control detected at 20 ppm, F represents an EC50 of ≥20 ppm and E represents an EC50 of less than 20 ppm.

Phytophthora cactorum = experiment: 96 well plate test; type: cell-based; conditions: 96 well plate assay, agar amended to 20, 2, 0.2 and 0.02 ppm, assessed after 2 to 3 days, read-out: EC50 Phytophthora spp. (Phytophthora cactorum)
Protocol: Compounds were screened in 96 well plates with 10 compounds per plate. Each compound was screened using agar amended to 20, 2, 0.2 and 0.02 ppm, with proline at 50 and 10 ppm and 0.2% DMSO used as controls. Each test concentration and standard was replicated twice on a plate. Compounds were screened against Phytophthora cactorum. The agar used in the test is a 1% potato dextrose agar. 1000 spores/mL agar were added to the appropriate agar. A ×10 stock solution in 2% DMSO was produced for each dose i.e. 200, 20, 2 and 0.2 ppm, and 10 μl of this added to the appropriate wells on the plate. An equivalent amount of 2% DMSO and proline stock at 500 and 100 ppm were added for the controls. To each well 90 μl of the appropriate agar spore suspension was added to give the required final well concentrations. Plates were incubated at room temperature (18° C.) and assessed after 2 to 3 days. The amount of pathogen growth in each well was compared to the DMSO controls and an EC50 concentration was calculated. The results are provided in Table 1 in which H represents no control detected at 20 ppm, G represents no control detected at 2 ppm (where the highest test concentration in the assay was 2 ppm), F represents an EC50 of ≥20 ppm, E represents an EC50 of less than 20 ppm.

Structure (SMILES) | EC50 (Phytophthora cactorum) [µg/mL] | inhibition of growth at 2 ppm (Pythium ultimum) [%] | % control Pythium ultimum 2 ppm (Pythium ultimum)
CCC(C)Nc1cccc(COc2nc3ccccc3n2-c2nnnn2C)n1 (stereo not shown) [Example 82] | < 20 | > 99 | 
Cn1nnnc1-n1c(OCc2cccc(NCCC(F)(F)F)n2)nc2ccccc21 [Example 83] | < 20 | > 99 | 
Cn1nnnc1-n1c(OCc2cccc(NCc3ccc(Cl)cc3)n2)nc2ccccc21 [Example 84] | < 20 | > 99 | 
Cn1nnnc1-n1c(OCc2cccc(NCc3ccc(F)cc3)n2)nc2ccccc21 [Example 86] | < 20 | > 99 | 
Cn1nnnc1-n1c(OCc2cccc(NCC3CC3)n2)nc2c(Cl)cccc21 [Example 87] | < 20 | > 99 | 
CCCNc1cccc(COc2nc3c(Cl)cccc3n2-c2nnnn2C)n1 [Example 88] | < 20 | > 99 | 
CC(C)CCNc1cccc(COc2nc3c(Cl)cccc3n2-c2nnnn2C)n1 [Example 90] | < 20 | > 99 | 
Cn1nnnc1-n1c(OCc2cccc(NCC3CC3)n2)nc2c(F)cccc21 [Example 91] | < 20 | > 99 | 
Cn1nnnc1-n1c(OCc2cccc(NCc3ccccc3Cl)n2)nc2ccccc21 [Example 92] | < 20 | > 99 | 
Cn1nnnc1-n1c(OCc2cccc(NCc3cccc(OC(F)(F)F)c3)n2)nc2ccccc21 [Example 96] | < 20 | > 99 | 
CCCCNc1cccc(COc2nc3c(Cl)cccc3n2-c2nnnn2C)n1 [Example 98] | < 20 | > 99 | 
CC(C)Nc1cccc(COc2nc3c(Cl)cccc3n2-c2nnnn2C)n1 [Example 103] | < 20 | > 99 | 
Cn1nnnc1-n1c(OCc2nc3ccccc3s2)nc2c(Br)cccc21 [Example 104] | < 20 | > 99 | 
Cn1nnnc1-n1c(OCc2nc3ccccc3n2C)nc2c(Br)cccc21 [Example 105] | < 20 | > 99 | 
Cn1nnnc1-n1c(OCc2cccc(N)n2)nc2c(Br)cccc21 [Example 106] | < 20 | 50 to 99 | 
Cn1nnnc1-n1c(OCc2cc(N)ccn2)nc2ccccc21 [Example 108, 2-(((1-(1-Methyl-1H-tetrazol-5-yl)-1H-benzo[d]imidazol-2-yl)oxy)methyl)pyridin-4-amine] | ≥ 20 |  | D

More lines, main results first:

EC50 (Phytophthora cactorum) [µg/mL] | Structure (SMILES) | inhibition of growth at 2 ppm (Pythium ultimum) [%] | % control Pythium ultimum 2 ppm (Pythium ultimum)
< 20 | Cn1nnnc1-n1c(OCc2cccc(NCc3cccc(Cl)c3)n2)nc2ccccc21 [Example 85] | > 99 | 
< 20 | Cn1nnnc1-n1c(OCc2cccc(NCc3ccccc3)n2)nc2c(Cl)cccc21 [Example 89] | > 99 | 
< 20 | Cn1nnnc1-n1c(OCc2cccc(NCc3cccc(C#N)c3)n2)nc2ccccc21 [Example 93] | > 99 | 
< 20 | COc1cccc(CNc2cccc(COc3nc4ccccc4n3-c3nnnn3C)n2)c1 [Example 94] | > 99 | 
< 20 | Cc1cccc(CNc2cccc(COc3nc4ccccc4n3-c3nnnn3C)n2)c1 [Example 95] | > 99 | 
< 20 | Cn1nnnc1-n1c(OCc2cccc(NCc3cccc(C(F)(F)F)c3)n2)nc2ccccc21 [Example 97] | > 99 | 
< 20 | CCCNc1cccc(COc2nc3c(Br)cccc3n2-c2nnnn2C)n1 [Example 99] | > 99 | 
< 20 | Cn1nnnc1-n1c(OCc2cccc(NCC3CC3)n2)nc2c(Br)cccc21 [Example 100] | > 99 | 
< 20 | Cc1cccc(CNc2cccc(COc3nc4c(Cl)cccc4n3-c3nnnn3C)n2)c1 [Example 101] | 50 to 99 | 
< 20 | Cc1cccc(CNc2cccc(COc3nc4c(Br)cccc4n3-c3nnnn3C)n2)c1 [Example 102] | 50 to 99 | 
